# Experimental data taken from patent US20230190781A1, “ADEMETIONINE AND CANNABIDIOL BASED SOLID PHARMACEUTICAL COMPOSITION AND METHOD FOR PREPARING IT” (priority 2020, published 2023).
# Key:
# [1] = Stability of ademetionine in the compositions; format: physicochemical; conditions: +40° C. and 75% RH
# Method: The compositions prepared according to the previous examples were placed in dark glass jars in cabinets with temperature and relative humidity control (+40° C. and 75% RH), periodically checking the content of active substances. The stability of the raw material is used as a reference.
# [2] = Residual humidity according to Karl-Fisher during processing under vacuum; format: physicochemical; conditions: Phase: dosage
# Method: It was operated as described in Example 3, but the step of mixing the active substances was carried out under vacuum, as described in Example 11.
compound,measurement,setting,value
"C[S+](CC[C@H](N)C(=O)[O-])C[C@H]1O[C@@H](n2cnc3c(N)ncnc32)[C@H](O)[C@@H]1O (stereo partly drawn) [Ademetionine, S,S-adenosyl-L-methionine]","ademetionine content, Time (months) 0","[1]; dark glass jars, 0 months",51.5
same,"ademetionine content, Time (months) 1","[1]; dark glass jars, 1 month",51.0
same,"ademetionine content, Time (months) 2","[1]; dark glass jars, 2 months",49.6
same,"ademetionine content, Time (months) 3","[1]; dark glass jars, 3 months",48.8
same,% residual ion,[1]; active substance content after three months as a percentage with respect to time zero,94.8%
same,KF: residual humidity,[2],2.7% w/w
